Assay results: PMC10138506, “Design, Synthesis and Cytotoxic Activity of Novel Salicylaldehyde Hydrazones against Leukemia and Breast Cancer” (International Journal of Molecular Sciences, 2023)
Like-named read-outs stand apart in the source and are kept apart here.

What was measured:
K-562 cells = assay: MTT-dye reduction cytotoxicity assay, K-562; format: cell-based, human; conditions: for IC50: Homo sapiens, K562; for SI (selectivity index) K-562: SI = IC50 (HEK-293)/IC50 (cancer cells)
Procedure: (§1) The research included four leukemic and three cancer human cell lines: HL-60 (acute myeloid leukemia), SKW-3 (KE-37 derivative) (T-cell leukemia), BV-173 and K-562 (chronic myeloid leukemia), MDA-MB-231 (ER-negative breast carcinoma), MCF-7 (ER-positive breast adenocarcinoma), and SaOS-2 (osteogenic sarcoma). The cells were provided from the German Collection of Microorganisms and Cell Cultures (DSMZ, Braunschweig, Germany). The solid tumor cell lines (MDA-MB-231, MCF-7, and SaOS-2) were incubated in 90% RPMI-1640 supplemented with 10% fetal bovine serum (FBS), non-essential amino acids, 1 mM sodium pyruvate, and […] human insulin as monolayer adherent cultures. The remaining cell lines were cultivated as a suspension culture in cell culture flasks at 37 °C in an incubator “BB 16-Function Line” Heraeus (Kendro, Hanau, Germany) with humidified atmosphere and 5% CO2 under standard conditions–RPMI-1640 liquid media supplemented with 10% FBS and 2 mM L-glutamine. The cells were kept in log phase by supplementing with fresh media after removing cell suspension aliquots two or three times each week.
(§2) At least eight wells were used for each concentration.

MCF-7 cells = assay: MTT-dye reduction cytotoxicity assay, MCF-7; format: cell-based, human; conditions: for IC50: Homo sapiens, MCF7; for SI (selectivity index) MCF-7: SI = IC50 (HEK-293)/IC50 (cancer cells)
Procedure: as §1, §2

BV-173 cells = assay: MTT-dye reduction cytotoxicity assay, BV-173; format: cell-based, human; conditions: for IC50: Homo sapiens, BV-173; for SI (selectivity index) BV-173: SI = IC50 (HEK-293)/IC50 (cancer cells)
Procedure: as §1, §2

SaOS-2 cells = assay: MTT-dye reduction cytotoxicity assay, SaOS-2; format: cell-based, human; conditions: for IC50: Homo sapiens, SAOS-2; for SI (selectivity index) SaOS-2: SI = IC50 (HEK-293)/IC50 (cancer cells)
Procedure: as §1, §2

KE-37 cells = assay: MTT-dye reduction cytotoxicity assay, KE-37; format: cell-based, human; conditions: for IC50: Homo sapiens, KE-37; for SI (selectivity index) KE-37: SI = IC50 (HEK-293)/IC50 (cancer cells)
Procedure: as §1, §2

MDA-MB-231 cells = assay: MTT-dye reduction cytotoxicity assay, MDA-MB-231; format: cell-based, human; conditions: for IC50: Homo sapiens, MDA-MB-231; for SI (selectivity index) MDA-MB-231: SI = IC50 (HEK-293)/IC50 (cancer cells)
Procedure: as §1, §2

HL-60 cells = assay: MTT-dye reduction cytotoxicity assay, HL-60; format: cell-based, human; conditions: for IC50: Homo sapiens, HL-60; for SI (selectivity index) HL-60: SI = IC50 (HEK-293)/IC50 (cancer cells)
Procedure: as §1, §2

[1] = tested on: HL-60, KE-37, K-562, BV-173, SaOS-2, MDA-MB-231, MCF-7 cell lines; assay: Average over the cancer cell lines tested (LE, SI); format: cell-based, human; conditions: average over seven cancer cell lines
Procedure: (§3) To assess the selectivity of the newly synthesized derivatives, they were tested on the normal human embryonic kidney HEK-293 cell line. The derived IC50 values were used to calculate the selectivity index according to the formula SI = IC50 (normal cells)/IC50 (cancer cells).
The training set of salicylaldehyde hydrazones contained 11 compounds synthesized and tested before in our Lab. Their anticancer activities were measured and expressed as IC50 values on the following cell lines: HL-60, KE-37, K-562, BV-173, SaOS-2, MDA-MB-231, and MCF-7. For the purposes of SAR analysis, the IC50 values were converted in p-units (−logIC50) and ligand efficiencies (LEs) were calculated according to the formula: LE = pIC50/n, where n is the count of non-hydrogen atoms in the molecule.

[2] = MTT-dye reduction cytotoxicity assay, normal HEK-293; conditions: human
Procedure: as §3
The cytotoxic activity of the examined substances was determined using Mossman’s MTT [3-(4,5-dimethylthiazol-2-yl)-2,5-diphenyltetrazolium bromide] dye reduction assay. The approach is based on the reduction of the yellow tetrazolium salt MTT to a violet formazan in live cells via mitochondrial succinate dehydrogenase. In brief, exponentially developing cells were seeded at a density of 1 × 10^5 cells per ml in 96-well flat-bottomed microplates (100 μL/well), and after 24 h of incubation at 37 °C, they were treated to varied doses of the tested substances for 72 h. At least eight wells were used for each concentration. Following the incubation with the test compounds, aliquots of 10 μL MTT solution (10 mg/mL in PBS) were applied to each well. The microplates were then incubated at 37 °C for 4 h before the MTT-formazan crystals were dissolved with 100 μL/well 5% HCOOH in 2-propanol. The MTT-formazan absorbance was measured at 580 nm using a microprocessor-controlled microplate reader (Labexim LMR-1).
The cell survival data were standardized as a percentage of the untreated control (set as 100% viability). The biological data were processed statistically using Student’s t-test, where values were considered statistically significant at p ≤ 0.05. The corresponding IC50 values were obtained to allow quantitative merit for the assessment of the relative potencies of the compounds under investigation. Each data point represents the arithmetic mean ± standard deviation (sd) of at least eight independent experiments.

[3] = training set, some activities published before [26-32], the rest measured for this study, read-out: IC50 ± standard deviation, MCF-7
[4] = training set, some activities published before [26-32], the rest measured for this study, read-out: IC50 ± standard deviation, BV-173
[5] = training set, some activities published before [26-32], the rest measured for this study, read-out: IC50 ± standard deviation, SaOS-2
[6] = training set, some activities published before [26-32], the rest measured for this study, read-out: IC50 ± standard deviation, KE-37
[7] = training set, some activities published before [26-32], the rest measured for this study, read-out: IC50 ± standard deviation, MDA-MB-231
[8] = training set, some activities published before [26-32], the rest measured for this study, read-out: IC50 ± standard deviation, HL-60
[9] = 72 h treatment, read-out: IC50 exp, K-562
[10] = 72 h treatment, read-out: IC50 exp, MCF-7
[11] = 72 h treatment, read-out: IC50 exp, BV-173
[12] = 72 h treatment, read-out: IC50 exp, SaOS-2
[13] = 72 h treatment, read-out: IC50 exp, KE-37
[14] = 72 h treatment, read-out: IC50 exp, MDA-MB-231
[15] = HEK-293 cells (normal human embryonic kidney)
[16] = 72 h treatment, read-out: IC50 exp, HL-60
[17] = compound 13 versus benzoyl analog

Row | Compound | IC50 (MCF-7 cells; [3]) [µM] | IC50 (BV-173 cells; [4]) [µM] | IC50 (KE-37 cells; [6]) [µM] | IC50 (MDA-MB-231 cells; [7]) [µM] | IC50 (HL-60 cells; [8]) [µM] | IC50 (K-562 cells; [9]) [µM] | SI (selectivity index) K-562 (K-562 cells) | IC50 (MCF-7 cells; [10]) [µM] | SI (selectivity index) MCF-7 (MCF-7 cells) | IC50 (BV-173 cells; [11]) [µM] | SI (selectivity index) BV-173 (BV-173 cells) | IC50 (SaOS-2 cells; [12]) [µM] | SI (selectivity index) SaOS-2 (SaOS-2 cells) | average SI [1] | IC50 (KE-37 cells; [13]) [µM] | SI (selectivity index) KE-37 (KE-37 cells) | IC50 (MDA-MB-231 cells; [14]) [µM] | SI (selectivity index) MDA-MB-231 (MDA-MB-231 cells) | IC50 at 72 h [2, 15] [µM] | IC50 (HL-60 cells; [16]) [µM] | further results
1 | O=C(N/N=C/c1cc([N+](=O)[O-])ccc1O)c1ccncc1 [Compound 8] | 0.18 ± 0.03 | 10.2 ± 1.1 | 17 ± 3.1 | 72.3 ± 5.6 | 15 ± 2.4 | – | – | – | – | – | – | – | – | – | – | – | – | – | – | – | IC50 (K-562 cells; training set, some activities published before [26-32], the rest measured for this study, read-out: IC50 ± standard deviation, K-562): 19 ± 2.7 µM; Ligand Efficiency (LE) K-562 (K-562 cells; LE = pIC50/number of heavy atoms): 0.225; IC50 (SaOS-2 cells; [5]): 35.7 ± 4.3 µM
2 | COc1ccc(O)c(/C=N/NC(=O)c2ccccc2)c1 [Compound 9] | 0.91 ± 0.3 | 3.15 ± 0.8 | 3.38 ± 1 | 4.46 ± 1.1 | 5.29 ± 1.2 | – | – | – | – | – | – | – | – | – | – | – | – | – | – | – | –
3 | COc1ccc(O)c(/C=N/NC(=O)c2ccc(O)cc2)c1 [Compound 10] | 3.54 ± 0.5 | 3.86 ± 0.9 | 14.8 ± 2.5 | 12.1 ± 1.9 | 13.8 ± 3.1 | – | – | – | – | – | – | – | – | – | – | – | – | – | – | – | –
4 | COc1ccc(O)c(/C=N/NC(=O)c2ccncc2)c1 [Compound 11] | 3 ± 0.6 | 2.95 ± 0.8 | 10.9 ± 2.2 | 5.58 ± 1.3 | 6.68 ± 1.4 | – | – | – | – | – | – | – | – | – | – | – | – | – | – | – | –
5 | COc1ccc(C=NNC(=O)c2ccccc2)c(O)c1 [Compound 12, 4-methoxysalicylaldehyde benzoylhydrazone] | – | – | – | – | – | 0.03 ± 0.002 | 1254 | 0.23 ± 0.02 | 164 | 1.21 ± 0.11 | 31 | 1.68 ± 0.15 | 22 | 350 | 1.99 ± 0.17 | 19 | 2.31 ± 0.25 | 16 | 37.6 ± 3.41 | 0.04 ± 0.005 | melting point: 182 to 183 °C; SI (selectivity index) HL-60 (HL-60 cells): 941
6 | COc1ccc(C=NNC(=O)c2ccc(O)cc2)c(O)c1 [Compound 13, 4-methoxysalicylaldehyde-4-hydroxybenzoylhydrazone] | – | – | – | – | – | 8.75 ± 1.29 | 6 | 1.38 ± 0.08 | 41 | 3.88 ± 1.16 | 15 | 26 ± 3.65 | 2 | 14 | 10.8 ± 2.81 | 5 | 2.9 ± 0.32 | 20 | 56.7 ± 4.35 | 8.9 ± 2.47 | reduction of cytotoxicity by hydroxy group in the benzoyl ring, K-562 (K-562 cells; [17]): 292 fold; reduction of cytotoxicity by hydroxy group in the benzoyl ring, MCF-7 (MCF-7 cells; [17]): 6 fold; reduction of cytotoxicity by hydroxy group in the benzoyl ring, BV-173 (BV-173 cells; [17]): 3 fold; reduction of cytotoxicity by hydroxy group in the benzoyl ring, sarcomic cells (SaOS-2 cells; [17]): 15.5 fold; melting point: 216 to 217 °C; reduction of cytotoxicity by hydroxy group in the benzoyl ring, MDA-MB-231 (MDA-MB-231 cells; [17]): 1.25 fold; SI (selectivity index) HL-60 (HL-60 cells): 6
7 | COc1ccc(C=NNC(=O)c2ccncc2)c(O)c1 [Compound 14, 4-methoxysalicylaldehyde isonicotinoylhydrazone] | – | – | – | – | – | 0.05 ± 0.008 | 821 | 0.23 ± 0.04 | 179 | 0.97 ± 0.12 | 42 | 1.66 ± 0.24 | 25 | 258 | 2.26 ± 0.73 | 18 | 1.22 ± 0.19 | 34 | 41.1 ± 2.05 | 0.06 ± 0.004 | SI (selectivity index) HL-60 (HL-60 cells): 685
8 | N[C@@H](Cc1ccc(N(CCCl)CCCl)cc1)C(=O)O [Melphalan, 2-amino-3-[4-bis(2-chloroethyl)amino]phenylpropanoic acid, reference compound] | – | – | – | – | – | – | – | – | – | – | – | 31.4 ± 5.4 | – | – | – | – | – | – | – | – | IC50 (SaOS-2 cells; [5]): 31.4 ± 5.4 µM; IC50 at 72 h [2]: 24.8 ± 2.9 µM
